Paper PMC10465358 (Nature Microbiology, 2023)

Assays:
[1] = molecular target: T1, P. bivia PulA (Prevotella bivia, UniProt I4Z8K5); assay: BODIPY fluorescent starch amylase assay with purified enzyme; assay type: biochemical
T1 construct: gene PrebiDRAFT_0808
From the text: BODIPY fluorescent starch amylase assay with purified enzyme on P. bivia PulA | Acarbose inhibited G. vaginalis PulA, P. bivia PulA and P. bivia GH13 enzymes

[2] = molecular target: T2, G. vaginalis PulA (Gardnerella vaginalis, UniProt A0ACD7VVB6); assay: fluorescent (BODIPY) starch hydrolysis; assay type: biochemical; details: BODIPY starch substrate; 15 min preincubation; 37 °C; pH not stated; error is 95% confidence interval
T2 construct: gene GAVG_1021; signal peptide removed, N-terminal His6 (pET28a, pETpullGV), E. coli ArcticExpress (DE3), 219 kDa, two alpha-amylase (GH13) domains (D233, D1317)
From the text: fluorescent (BODIPY) starch hydrolysis on G. vaginalis PulA | Acarbose inhibited G. vaginalis PulA, P. bivia PulA and P. bivia GH13 enzymes

T1 sequence (I4Z8K5 23-637 limits assumed): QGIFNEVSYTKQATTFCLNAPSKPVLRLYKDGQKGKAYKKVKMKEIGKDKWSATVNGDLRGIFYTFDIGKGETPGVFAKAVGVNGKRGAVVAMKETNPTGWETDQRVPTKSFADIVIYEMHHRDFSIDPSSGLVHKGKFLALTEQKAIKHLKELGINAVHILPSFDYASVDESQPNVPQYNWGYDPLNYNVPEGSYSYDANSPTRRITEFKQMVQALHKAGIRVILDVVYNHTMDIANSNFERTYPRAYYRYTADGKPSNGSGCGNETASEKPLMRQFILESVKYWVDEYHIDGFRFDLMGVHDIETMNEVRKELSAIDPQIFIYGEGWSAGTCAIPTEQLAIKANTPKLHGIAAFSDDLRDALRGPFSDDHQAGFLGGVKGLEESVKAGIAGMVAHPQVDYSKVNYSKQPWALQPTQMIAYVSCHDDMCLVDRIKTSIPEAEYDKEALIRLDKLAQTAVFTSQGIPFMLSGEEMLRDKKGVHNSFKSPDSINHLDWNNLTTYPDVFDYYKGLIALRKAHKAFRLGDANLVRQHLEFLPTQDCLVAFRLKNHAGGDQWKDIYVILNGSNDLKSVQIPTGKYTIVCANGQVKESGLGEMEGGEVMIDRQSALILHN
T2 sequence (A0ACD7VVB6 34-2012): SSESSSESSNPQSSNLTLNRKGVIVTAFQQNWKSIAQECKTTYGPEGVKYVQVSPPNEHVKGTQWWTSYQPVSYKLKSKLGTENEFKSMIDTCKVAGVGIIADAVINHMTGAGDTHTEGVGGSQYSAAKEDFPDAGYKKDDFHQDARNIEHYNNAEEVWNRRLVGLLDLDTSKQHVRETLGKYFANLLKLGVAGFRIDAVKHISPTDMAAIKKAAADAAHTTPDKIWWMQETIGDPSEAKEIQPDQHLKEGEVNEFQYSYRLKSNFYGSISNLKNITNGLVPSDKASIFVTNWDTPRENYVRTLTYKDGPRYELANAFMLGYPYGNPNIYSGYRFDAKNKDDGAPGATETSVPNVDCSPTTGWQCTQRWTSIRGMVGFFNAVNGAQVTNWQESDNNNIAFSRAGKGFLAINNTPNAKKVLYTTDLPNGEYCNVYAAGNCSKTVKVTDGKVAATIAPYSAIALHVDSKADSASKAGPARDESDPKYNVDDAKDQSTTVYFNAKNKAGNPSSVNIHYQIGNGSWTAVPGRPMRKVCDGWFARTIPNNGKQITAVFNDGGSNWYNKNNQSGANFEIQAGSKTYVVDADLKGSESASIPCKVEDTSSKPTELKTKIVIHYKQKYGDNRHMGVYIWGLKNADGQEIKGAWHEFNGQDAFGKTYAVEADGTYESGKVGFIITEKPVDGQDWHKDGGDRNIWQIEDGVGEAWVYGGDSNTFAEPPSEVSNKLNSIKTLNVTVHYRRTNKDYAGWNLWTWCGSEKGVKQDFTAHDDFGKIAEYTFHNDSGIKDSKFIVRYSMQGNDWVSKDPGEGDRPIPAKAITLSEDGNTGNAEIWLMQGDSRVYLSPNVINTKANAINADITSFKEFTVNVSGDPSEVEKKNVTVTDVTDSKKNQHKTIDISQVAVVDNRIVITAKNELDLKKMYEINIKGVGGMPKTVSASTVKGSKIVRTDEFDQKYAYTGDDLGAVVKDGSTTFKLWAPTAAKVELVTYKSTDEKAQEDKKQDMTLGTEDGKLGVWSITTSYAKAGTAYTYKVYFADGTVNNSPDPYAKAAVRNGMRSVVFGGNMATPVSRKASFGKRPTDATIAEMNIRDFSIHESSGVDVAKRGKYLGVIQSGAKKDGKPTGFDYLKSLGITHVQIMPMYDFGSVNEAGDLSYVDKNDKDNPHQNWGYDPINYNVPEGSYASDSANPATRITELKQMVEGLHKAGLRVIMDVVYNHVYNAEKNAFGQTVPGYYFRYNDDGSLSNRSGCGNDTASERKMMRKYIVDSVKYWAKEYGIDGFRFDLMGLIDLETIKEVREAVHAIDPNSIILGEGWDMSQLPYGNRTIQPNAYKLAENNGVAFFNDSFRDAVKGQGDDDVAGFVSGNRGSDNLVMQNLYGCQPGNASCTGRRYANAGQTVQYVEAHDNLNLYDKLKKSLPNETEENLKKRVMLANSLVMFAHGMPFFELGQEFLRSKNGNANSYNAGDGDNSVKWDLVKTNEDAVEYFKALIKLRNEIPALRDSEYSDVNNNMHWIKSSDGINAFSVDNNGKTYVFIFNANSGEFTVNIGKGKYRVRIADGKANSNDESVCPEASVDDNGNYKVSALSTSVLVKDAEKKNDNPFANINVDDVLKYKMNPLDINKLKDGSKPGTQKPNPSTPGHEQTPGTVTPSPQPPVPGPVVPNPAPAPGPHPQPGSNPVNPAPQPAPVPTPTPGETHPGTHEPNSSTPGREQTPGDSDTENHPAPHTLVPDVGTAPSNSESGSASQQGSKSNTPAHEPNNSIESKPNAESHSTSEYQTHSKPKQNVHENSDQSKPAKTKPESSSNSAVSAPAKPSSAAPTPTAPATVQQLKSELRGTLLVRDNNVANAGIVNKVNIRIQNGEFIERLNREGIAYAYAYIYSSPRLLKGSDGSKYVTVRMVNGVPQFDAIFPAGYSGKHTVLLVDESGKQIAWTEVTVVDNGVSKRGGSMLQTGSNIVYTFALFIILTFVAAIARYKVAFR

Question: How did the IC50 [1] turn out when `C[C@H]1O[C@H](O[C@H]2[C@H](O)[C@@H](O)[C@@H](O[C@H]3[C@H](O)[C@@H](O)C(O)O[C@@H]3CO)O[C@@H]2CO)[C@H](O)[C@@H](O)[C@@H]1N[C@H]1C=C(CO)[C@@H](O)[C@H](O)[C@H]1O` (some centres unmarked) [acarbose] was run?
Answer: 420 ± 90 µM

Question: What about the IC50 [2] of the same molecule?
Answer: 120 ± 30 µM
